Assay results reported in ChEMBL document CHEMBL6074662, “Antibacterial, Antibiofilm, and Anti-inflammatory Effects of a Novel Thrombin-Derived Peptide in Sepsis Models: Insights into Underlying Mechanisms” (J Med Chem, 2024).
Calls of active or inactive are those of the source. The calls are words filed in the database; no cut-off is given here.

How the values were obtained:
Staphylococcus aureus [1] = experiment: Synergistic antibacterial activity against methicillin-resistant Staphylococcus aureus CCARM 3089 assessed as fractional inhibitory concentration index by measuring ratio of MIC of Ciprofloxacin in presence of compound to MIC to Ciprofloxacin incubated for 24 hrs by broth microdilution method; type: functional
Staphylococcus aureus [2] = experiment: Antibacterial activity against methicillin-resistant Staphylococcus aureus CCARM 3089 incubated for 24 hrs by CLSI based broth microdilution method; type: functional
Acinetobacter baumannii = experiment: Antibacterial activity against carbapenem-resistant Acinetobacter baumannii NMS 1707 incubated for 24 hrs by CLSI based broth microdilution method; type: functional
Escherichia coli [3] = experiment: Antibacterial activity against Escherichia coli KCTC 1682 incubated for 24 hrs in presence of MgCl2 by CLSI based broth microdilution method; type: functional
[4] = Effect on secondary structure of drug in LPS assessed as fold increase in formation of alpha-helical conformation at 150 uM by CD analysis relative to HVF18; type: physicochemical
Pseudomonas aeruginosa [5] = experiment: Synergistic antibacterial activity against multi-drug resistant Pseudomonas aeruginosa CCARM 2095 assessed as fractional inhibitory concentration index by measuring ratio of MIC of compound in presence of Ciprofloxacin to MIC to compound incubated for 24 hrs by broth microdilution method; type: functional
Escherichia coli [6] = experiment: Antibacterial activity against Escherichia coli KCTC 1682 incubated for 24 hrs in presence of NH4Cl by CLSI based broth microdilution method; type: functional
Pseudomonas aeruginosa [7] = experiment: Synergistic antibacterial activity against multi-drug resistant Pseudomonas aeruginosa CCARM 2095 incubated for 24 hrs in presence of Oxacillin by broth microdilution method; type: functional
Pseudomonas aeruginosa [8] = experiment: Synergistic antibacterial activity against multi-drug resistant Pseudomonas aeruginosa CCARM 2095 assessed as fractional inhibitory concentration index incubated for 24 hrs in presence of Oxacillin by broth microdilution method; type: functional
Pseudomonas aeruginosa [9] = experiment: Synergistic antibacterial activity against multi-drug resistant Pseudomonas aeruginosa CCARM 2095 assessed as MIC of Oxacillin incubated for 24 hrs by broth microdilution method; type: functional
Staphylococcus aureus [10] = experiment: Synergistic antibacterial activity against methicillin-resistant Staphylococcus aureus CCARM 3089 assessed as fractional inhibitory concentration index by measuring ratio of MIC of Oxacillin in presence of compound to MIC to Oxacillin incubated for 24 hrs by broth microdilution method; type: functional
Escherichia coli [11] = experiment: Antibacterial activity against Escherichia coli KCTC 1682 incubated for 24 hrs in presence of CaCl2 by CLSI based broth microdilution method; type: functional
Pseudomonas aeruginosa [12] = experiment: Synergistic antibacterial activity against multi-drug resistant Pseudomonas aeruginosa CCARM 2095 assessed as fractional inhibitory concentration index by measuring ratio of MIC of compound in presence of Chloramphenicol to MIC to compound incubated for 24 hrs by broth microdilution method; type: functional
RAW264.7 [13] = experiment: Anti-inflammatory activity in mouse RAW264.7 cells assessed as decrease in LPS-induced TNF-alpha level at 5 uM pretreated for 1 hr followed by LPS treatment for 16 hrs by ELISA relative to control; type: functional; conditions: time 17 hrs
RAW264.7 [14] = experiment: Anti-inflammatory activity in mouse RAW264.7 cells assessed as decrease in LPS-induced TNF-alpha level at 2.5 uM pretreated for 1 hr followed by LPS treatment for 16 hrs by ELISA relative to control; type: functional; conditions: time 17 hrs
Staphylococcus aureus [15] = experiment: Synergistic antibacterial activity against methicillin-resistant Staphylococcus aureus CCARM 3089 assessed as fractional inhibitory concentration index by measuring ratio of MIC of compound in presence of Ciprofloxacin to MIC to compound incubated for 24 hrs by broth microdilution method; type: functional
[16] = Effect on secondary structure of drug in PBS assessed as formation of random coil structure at 150 uM by CD analysis; type: physicochemical; conditions: buffer
[17] = Effect on secondary structure of drug in TFE assessed as fold increase in formation of alpha-helical conformation at 150 uM by CD analysis relative to HVF18; type: physicochemical
Staphylococcus aureus [18] = experiment: Synergistic antibacterial activity against methicillin-resistant Staphylococcus aureus CCARM 3089 assessed as MIC of Ciprofloxacin incubated for 24 hrs by broth microdilution method; type: functional
Staphylococcus aureus [19] = experiment: Antibacterial activity against methicillin-resistant Staphylococcus aureus CCARM 3095 incubated for 24 hrs by CLSI based broth microdilution method; type: functional
Escherichia coli [20] = experiment: Induction of cytoplasmic membrane depolarization in Escherichia coli KCTC 1682 at 0.5 times MIC measured for 500 secs by diSC3-5 dye based analysis relative to control; type: functional; conditions: time 500 sec; 0.1389 h
Staphylococcus aureus [21] = experiment: Synergistic antibacterial activity against methicillin-resistant Staphylococcus aureus CCARM 3089 assessed as fractional inhibitory concentration index incubated for 24 hrs in presence of Ciprofloxacin by broth microdilution method; type: functional
Pseudomonas aeruginosa [22] = experiment: Antibacterial activity against multi-drug resistant Pseudomonas aeruginosa CCARM 2095 incubated for 24 hrs by broth microdilution method; type: functional
Escherichia coli [23] = experiment: Induction of resistance development in Escherichia coli KCTC 1682 at 0.5 times MIC measured after 30 passages; type: functional, organism-based
[24] = Hydrophobicity of compound assessed as retention time by RP-HPLC analysis; type: physicochemical
Staphylococcus aureus [25] = experiment: Synergistic antibacterial activity against methicillin-resistant Staphylococcus aureus CCARM 3089 incubated for 24 hrs in presence of Ciprofloxacin by broth microdilution method; type: functional
Pseudomonas aeruginosa [26] = experiment: Synergistic antibacterial activity against multi-drug resistant Pseudomonas aeruginosa CCARM 2095 assessed as fractional inhibitory concentration index by measuring ratio of MIC of Oxacillin in presence of compound to MIC to Oxacillin incubated for 24 hrs by broth microdilution method; type: functional
Pseudomonas aeruginosa [27] = experiment: Inhibition of biofilm formation in multi-drug resistant Pseudomonas aeruginosa CCARM 2095 at 1 to 128 uM by crystal violet staining based analysis; type: functional, organism-based; conditions: dose 1-128 µM
Salmonella typhimurium = experiment: Antibacterial activity against Salmonella typhimurium KCTC 1926 incubated for 24 hrs by CLSI based broth microdilution method; type: functional, Salmonella enterica subsp. enterica serovar Typhimurium; conditions: Salmonella enterica
Escherichia coli [28] = experiment: Antibacterial activity against Escherichia coli KCTC 1682 incubated for 24 hrs in presence of NaCl by CLSI based broth microdilution method; type: functional
Pseudomonas aeruginosa [29] = experiment: Anti-biofilm activity against multi-drug resistant Pseudomonas aeruginosa CCARM 2095 assessed as increase in red-stained dead cells at 32 uM incubated for 12 hrs by SYTO9/PI staining based analysis; type: functional, organism-based
[30] = Effect on secondary structure of drug in SDS assessed as fold increase in formation of alpha-helical conformation at 150 uM by CD analysis relative to HVF18; type: physicochemical
[31] = test system: Staphylococcus epidermidis; experiment: Antibacterial activity against Staphylococcus epidermidis KCTC 1917 incubated for 24 hrs by CLSI based broth microdilution method; type: functional
Escherichia coli [32] = experiment: Antibacterial activity against Escherichia coli KCTC 1682 incubated for 24 hrs in presence of KCl by CLSI based broth microdilution method; type: functional
Pseudomonas aeruginosa [33] = experiment: Eradication of biofilm formation in multi-drug resistant Pseudomonas aeruginosa CCARM 2095 at 1 to 128 uM incubated for 12 hrs by CLSM analysis; type: functional, organism-based; conditions: dose 1-128 µM
Staphylococcus aureus [34] = experiment: Synergistic antibacterial activity against methicillin-resistant Staphylococcus aureus CCARM 3089 assessed as fractional inhibitory concentration index by measuring ratio of MIC of Chloramphenicol in presence of compound to MIC to Chloramphenicol incubated for 24 hrs by broth microdilution method; type: functional

Substance | FIC (Staphylococcus aureus [1]) | MIC (Staphylococcus aureus [2]) | MIC (Acinetobacter baumannii) | MIC (Escherichia coli [3]) | fold change (FC) [4] | FIC (Pseudomonas aeruginosa [5]) | MIC (Escherichia coli [6]) | MIC (Pseudomonas aeruginosa [7]) | fractional inhibitory concentration index (FICI) (Pseudomonas aeruginosa [8]) | MIC (Pseudomonas aeruginosa [9]) | FIC (Staphylococcus aureus [10]) | MIC (Escherichia coli [11]) | FIC (Pseudomonas aeruginosa [12]) | inhibition at 5 µM (RAW264.7 [13]) | inhibition at 2.5 µM (RAW264.7 [14]) | FIC (Staphylococcus aureus [15]) | Activity [16] | fold change (FC) [17] | MIC (Staphylococcus aureus [18]) | MIC (Staphylococcus aureus [19]) | other results
H-GVFRLKKWLKKVKKWGK-NH2 | 0.5 | 8 µM | 4 µM | 32 µM | ~ 5 | 0.5 | 16 µM | 2 µM | 0.281 | 128 µM | 0.25 | 16 µM | 0.25 | 78.1% | 32.3% | 0.5 | Active | ~ 5 | 512 µM | 8 µM | Activity (Escherichia coli [20]): ~50%; fractional inhibitory concentration index (FICI) (Staphylococcus aureus [21]): 1; MIC (Pseudomonas aeruginosa [22]): 8 µM; Activity (Escherichia coli [23]): inactive; Retention_time [24]: 21.66 min; MIC (Staphylococcus aureus [25]): 4 µM; FIC (Pseudomonas aeruginosa [26]): 0.031; Activity (Pseudomonas aeruginosa [27]): Active; Superior Activity Compared To Ll-37; MIC (Salmonella typhimurium): 8 µM; MIC (Escherichia coli [28]): 32 µM; Activity (Pseudomonas aeruginosa [29]): Active; fold change (FC) [30]: ~ 5; MIC [31]: 8 µM; MIC (Escherichia coli [32]): 16 µM; Activity (Pseudomonas aeruginosa [33]): Active; Superior Activity Compared To Ll-37; FIC (Staphylococcus aureus [34]): 0.5
H-GVFRLKKWIKKVIKKWGK-NH2 | 0.5 | 8 µM | 4 µM | 32 µM | ~ 5 | 0.5 | 16 µM | 2 µM | 0.281 | 128 µM | 0.25 | 32 µM | 0.25 | 5.7% | 2.6% | 0.25 | Active | ~ 5 | 512 µM | 8 µM | Activity (Escherichia coli [20]): ~50%; fractional inhibitory concentration index (FICI) (Staphylococcus aureus [21]): 0.75; MIC (Pseudomonas aeruginosa [22]): 8 µM; Activity (Escherichia coli [23]): inactive; Retention_time [24]: 20.06 min; MIC (Staphylococcus aureus [25]): 2 µM; FIC (Pseudomonas aeruginosa [26]): 0.031; Activity (Pseudomonas aeruginosa [27]): Active; Superior Activity Compared To Ll-37; MIC (Salmonella typhimurium): 4 µM; MIC (Escherichia coli [28]): 32 µM; Activity (Pseudomonas aeruginosa [29]): Active; fold change (FC) [30]: ~ 5; MIC [31]: 8 µM; MIC (Escherichia coli [32]): 32 µM; Activity (Pseudomonas aeruginosa [33]): Active; Superior Activity Compared To Ll-37; FIC (Staphylococcus aureus [34]): 0.25
